# Results from US8138211B2, “Isothiazolyloxyphenylamidines and their use as fungicides” (Bayer Cropscience AG, priority 2009, dated 2012).
# Read-outs that look alike come from different tables or passages of the source.
# Assays:
# [1] = logP by HPLC on reversed-phase columns (C18), EEC Directive 79/831 Annex V.A8; type: physicochemical
# Protocol: The logP values were measured in accordance with EEC Directive 79/831 Annex V.A8 by HPLC (High Performance Liquid Chromatography) on reversed-phase columns (C18), using the method below: ^[a] The determination was carried out in the acidic range at pH 2.3 using the mobile phases 0.1% aqueous phosphoric acid and acetonitrile linear gradient from 10% acetonitrile to 95% acetonitrile. ^[b] The LC-MS determination in the acidic range was carried out at pH 2.7 using the mobile phases 0.1% aqueous formic acid and acetonitrile (comprising 0.1% formic acid) linear gradient from 10% acetonitrile to 95% acetonitrile ^[c] The LC-MS determination in the neutral range was carried out at pH 7.8 using the mobile phases 0.001 molar ammonium bicarbonate solution and acetonitrile linear gradient from 10% acetonitrile to 95% acetonitrile. Calibration was carried out using unbranched alkan-2-ones (having 3 to 16 carbon atoms) with known logP values (determination of the logP values by the retention times using linear interpolation between two successive alkanones).
# [2] = test system: Pyricularia oryzae; type: in vivo; details: active compound concentration of 250 ppm; rice, protective; evaluation 7 days after inoculation
# [3] = test system: Cochliobolus miyabeanus; assay: Cochliobolus test (rice)/protective; details: active compound concentration of 250 ppm, protective, evaluation 4 days after inoculation
# Protocol: • Solvent: 28.5 parts by weight of acetone • Emulsifier: 1.5 parts by weight of alkylaryl polyglycol ether
# One day after the treatment, the plants are inoculated with an aqueous spore suspension of Cochliobolus miyabeanus. The plants are then placed in a greenhouse at 100% relative atmospheric humidity and 25° C.
# Evaluation is carried out 4 days after the inoculation.
# [4] = reversed-phase HPLC column (C18), LC-MS, acidic range pH 2.7, 0.1% aqueous formic acid and acetonitrile, read-out: logP(HCO2H)
SMILES,chromatographic logP ([1]; pH 2.7),also measured
N#Cc1c(Cc2ccc(Cl)cc2)nsc1N [5-amino-3-(4-chlorobenzyl)isothiazole-4-carbonitrile],–,"chromatographic logP [1, 4]: 2.4"
CC(C)(C)c1nsc(N)c1C#N [5-amino-3-tert-butylisothiazole-4-carbonitrile],–,"chromatographic logP [1, 4]: 2.4"
"CCN(C)/C=N/c1cc(C)c(Oc2cc(-c3ccccc3)ns2)cc1C [No. 43, N′-{2,5-dimethyl-4-[(3-phenyl-1,2-thiazol-5-yl)oxy]phenyl}-N-ethyl-N-methylimidoformamide]",2.11,–
"CCN(C)/C=N/c1cc(C)c(Oc2snc(Cc3ccc(Cl)cc3)c2C#N)cc1C [No. 27, N′-(4-{[3-(4-chlorobenzyl)-4-cyano-1,2-thiazol-5-yl]oxy}-2,5-dimethylphenyl)-N-ethyl-N-methylimidoformamide]",2.39,–
Cc1cc(Oc2snc(-c3ccccc3)c2Br)c(Cl)cc1N [4-[(4-bromo-3-phenylisothiazol-5-yl)oxy]-5-chloro-2-methylaniline],4.41,–
"Cc1cc(Oc2snc(-c3ccccc3)c2Cl)c(C)cc1N [4-[(4-chloro-3-phenylisothiazol-5-yl)oxy]-2,5-dimethylaniline]",4.22,–
"Cc1cc(Oc2cc(-c3ccccc3)ns2)c(C)cc1N [2,5-dimethyl-4-[(3-phenylisothiazol-5-yl)oxy]aniline]",3.6,–
Clc1snc(-c2ccccc2)c1Br [4-bromo-5-chloro-3-phenylisothiazole],–,"chromatographic logP [1, 4]: 4.41"
"Clc1snc(-c2ccccc2)c1Cl [4,5-dichloro-3-phenylisothiazole]",4.44,–
N#Cc1c(Cc2ccc(Cl)cc2)nsc1Cl [5-chloro-3-(4-chlorobenzyl)isothiazole-4-carbonitrile],3.87,–
"CCN(C)/C=N/c1cc(Cl)c(Oc2snc(-c3ccccc3)c2Br)cc1C [No. 54, N′-{4-[(4-bromo-3-phenyl-1,2-thiazol-5-yl)oxy]-5-chloro-2-methylphenyl}-N-ethyl-N-methylimidoformamide]",2.26,–
Nc1snc(-c2ccccc2)c1Cl [4-chloro-3-phenylisothiazol-5-amine],–,"chromatographic logP [1, 4]: 2.21"
Clc1cc(-c2ccccc2)ns1 [5-chloro-3-phenylisothiazole],3.82,–
"CCCN(C)/C=N/c1cc(C)c(Oc2snc(C(C)(C)C)c2C#N)cc1C [No. 4, N′-{4-[(3-tert-butyl-4-cyano-1,2-thiazol-5-yl)oxy]-2,5-dimethylphenyl}-N-methyl-N-propylimidoformamide]",2.19,–
"Cc1cc(Oc2snc(Cc3ccc(Cl)cc3)c2C#N)c(C)cc1N [5-(4-amino-2,5-dimethylphenoxy)-3-(4-chlorobenzyl)isothiazole-4-carbonitrile]",4.03,–
Nc1snc(-c2ccccc2)c1Br [4-bromo-3-phenylisothiazol-5-amine],–,"chromatographic logP [1, 4]: 2.26"
CCN(C)C=Nc1cc(C)c(Oc2snc(C(C)(C)C)c2C#N)cc1C [compound 6],–,efficacy [2]: ≥ 80%; efficacy [3]: ≥ 80%
"CCN(C)/C=N/c1cc(C)c(Oc2snc(-c3ccccc3)c2Cl)cc1C [No. 48, N′-{4-[(4-chloro-3-phenyl-1,2-thiazol-5-yl)oxy]-2,5-dimethylphenyl}-N-ethyl-N-methylimidoformamide]",2.25,–
